Patent US8974830B2, “Particles and contrast agent including the same for optical imaging” (Canon Kabushiki Kaisha, priority 2012, dated 2015)

Experiment: Accumulation rate in popliteal lymph nodes after subcutaneous plantar administration
Format: in vivo, mouse
Details: 24 hours after subcutaneous plantar administration, 13 nmol dye
Procedure: PNP10 prepared in EXAMPLE 10 was administered subcutaneously into the plantar surface of a mouse. Extirpation was performed 24 hours after administration. After homogenization, extraction was performed with an organic solvent to measure the accumulation rate in the popliteal lymph nodes. The amount administered was 13 nmol in terms of the amount of the dye. As a comparative example, an aqueous solution of ICG was also administered, and the accumulation rate was measured. The accumulation rate of PNP10 in the lymph nodes was about 80 times higher than that of ICG.

SMILES: CC1(C)C(/C=C/C=C/C=C/C=C2\N(CCCCS(=O)(=O)O)c3ccc4ccccc4c3C2(C)C)=[N+](CCCCS(=O)(=O)[O-])c2ccc3ccccc3c21 [ICG, Indocyanine green]
- Accumulation rate in lymph node (% ID): 0.1 % ID
